What was measured:
[1] = Absorption and fluorescence spectra of compounds in PBS or HEPES; assay type: physicochemical; settings: for peak excitation wavelength: excitation wavelength used for fluorescence spectra of FIG. 1A/1B; for fluorescence emission, 540 nm (Ex in PBS): excited at 540 nm; for fluorescence emission, 540 nm (Ex in PBS) / fluorescence emission, λ1 nm (Ex in HEPES) / fluorescence emission, λ1 nm (Ex in PBS): 20 μM; for fluorescence emission, λ1 nm (Ex in HEPES) / fluorescence emission, λ1 nm (Ex in PBS): excited at absorption peak 1 (λ1)
How it was run: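 Compounds (20 μM working solutions) in PBS or HEPES, read in quartz cuvette against buffer baseline, absorbance scanned 280–800 nm. Emission scanned 400–900 nm in 1 nm steps with excitation at each compound's first absorption peak or 540 nm, ten reads per point. DRAQ5 served as reference; spectra normalised to peak.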

[2] = system: fixed human osteosarcoma U-2 OS cells; assay: Labelling of fixed cells, wide-field fluorescence microscopy; assay type: cell-based; settings: 20 μM, 1 h exposure in PBS, FIG. 2
How it was run: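 U-2 OS cells fixed 24 or 48 h after seeding with 4% paraformaldehyde for 30 min, then labelled with AAQ agents at 20 μM (DRAQ5 20 μM as reference) in PBS at 37° C in the dark. Imaged without washing after 1 h by wide-field fluorescence, ×10 0.3 NA objective, for red signal and cellular location.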

A549 cells = assay: Constant exposure to probes, time-lapse and flow cytometry after 72 h; assay type: cell-based, human; settings: within 24 hours
Description: Timelapse imaging, in accordance with Errington R J et al, Time-lapse microscopy approaches to track cell cycle and lineage progression at the single-cell level, Curr Protoc Cytom. 2013 April; Chapter 12: Unit 12.4, was carried out in relation to cells with exposure to probe compounds.
In this regard, A549 cells were seeded in a 24 well coverslip bottomed-plate, cultured overnight in McCoys media for 24 or 48 hours. The plates were placed onto an inverted automated microscope, with the capacity for acquiring an image sequence of different wells (therefore exposure to different agent labelling). An Axiovert 100 microscope (Carl Zeiss, Welwyn Garden City, UK) was fitted with an incubator for 37° C./5% CO2 maintenance (Solent Scientific, Portsmouth, UK), and an ORCA-ER CCD camera (Hamamatsu, Reading, UK). Illumination was controlled by a shutter in front of the transmission lamp, and an x, y positioning stage with separate z-focus (Prior Scientific, Cambridge, UK) controlled multi-field acquisition. Image capture was controlled using Metamorph software.
Cells were exposed to a constant dose (0-5 μM) or a pulsed dose of 0 or 20 μM agent for 15 minutes followed by washout with warmed full media. […]
A549 cell lines were monitored using time-lapse collection and lineage progression, in constant exposure to compounds of the invention. The effects on cells were also determined. […]

MCF7 = assay: MTT cellular viability (growth inhibition) assay, MCF7; assay type: cell-based; settings: Homo sapiens, 0.25-100 μM, 72 h, Table 3
How it was run: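 Cells seeded at 1×10^4 cells/mL in R10, allowed to adhere overnight at 37 °C, 5% CO2. Compounds tested at 0.25–100 μM for 72 h; MTT read-out gave growth-inhibition IC50.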

| peak excitation wavelength [1] [nm] | fluorescence emission, 540 nm (Ex in PBS) [1] [nm] | fluorescence emission, λ1 nm (Ex in HEPES) [1] [nm] | fluorescence emission, λ1 nm (Ex in PBS) [1] [nm] | IC50 (MCF7) [µM] | Structure (SMILES) | staining pattern in fixed cells [2] | localisation of probe during constant exposure (A549 cells) | fluorescence brightness / background in fixed cells [2] |
| --- | --- | --- | --- | --- | --- | --- | --- | --- |
| 584 | 660 | 660 | 666 | 15.7 | COC(CNC(=O)CCNc1ccc(NCCN(C)C)c2c1C(=O)c1ccccc1C2=O)OC [BST-109, N-(2,2-Dimethoxyethyl)-3-(4-(2-(dimethylamino)ethylamino)-9,10-dioxo-9,10-dihydroanthracen-1-ylamino)propanamide] | heterogeneity in cytoplasmic staining and positive spots in the nuclei | predominantly in a membrane compartment of the cytoplasm | – |
| 583 | 662 | 660 | 665.5 | 19.5 | COC(CC(=O)NCCNc1ccc(NCCN(C)C)c2c1C(=O)c1ccccc1C2=O)OC [BST-110, N-(2-(4-(2-(dimethylamino)ethylamino)-9,10-dioxo-9,10-dihydroanthracen-1-ylamino)ethyl)-3,3-dimethoxypropanamide] | cytoplasmic staining and heterogeneity on labelling of mitotic figures | predominantly in a membrane compartment of the cytoplasm | very high background fluorescence |
